Results taken from US20250059169A1, “PYRAZOLE-1(2H)-PHTHALAZINONE COMPOUND AND APPLICATION THEREOF” (MEDSHINE DISCOVERY INC., priority 2021, published 2025).

Key:
HCT116 MTAP KO cells = assay: In vitro proliferation assay of HCT116 MTAP KO cells; type: cell-based; conditions: 10 days, 3D CellTiter-Glo
Procedure: (§1) McCoy's 5A medium, penicillin/streptomycin antibiotics, purchased from Wisent; fetal bovine serum, purchased from Biosera. 3D CellTiter-Glo (chemiluminescent cell viability assay reagent), purchased from Promega. HCT116 WT cell line, purchased from Nanjing Cobioer Biosciences Co., Ltd. HCT116 MTAP KO cell line, purchased from Horizon Discovery. Envision multilabel plate reader (PerkinElmer).
(§2) HCT116 WT and MTAP KO cells were seeded into an ultra-low attachment 96-well U-bottom plate at a density of 80 μL cell suspension per well containing 1000 HCT116 cells. The cell plate was incubated overnight in a CO2 incubator.
(§3) The test compound was serially diluted 5-fold across eight concentrations using a pipette, ranging from 2 mM to 25.6 nM, and tested in duplicate. 78 μL of medium per well was added to an intermediate plate. Subsequently, 2 μL of the serially diluted compound per well was transferred to the corresponding wells of the intermediate plate and mixed well. […] An additional cell plate was prepared to read the signal value on the day of compound addition, which served as the […] for data analysis.
(§4) The cell plate was added with 100 μL of chemiluminescent cell viability assay reagent per well and incubated at room temperature for 10 minutes to stabilize the luminescent signal. A multilabel microplate reader was used for reading. […]

HCT116 WT cells = assay: In vitro proliferation assay of HCT116 WT cells; type: cell-based; conditions: 10 days, 3D CellTiter-Glo
Procedure: as §1, §2, §3, §4

[1] = In vitro liver microsomal stability test, human; type: in vitro ADME; conditions: Human liver microsomes, 1 μM compound, 0.5 mg/mL
Procedure: (§5) Liver microsomes: Human and animal microsomes were purchased from Corning or Xenotech and stored in a −80° C. freezer.
(§6) Reduced nicotinamide adenine dinucleotide phosphate (NADPH), supplier: Chem-Impex International, Cat. No.: 00616.
(§7) Stock solution: 10 mM DMSO solution
(§8) Preparation of working concentration: The stock solution was diluted to 100 µM using 100% acetonitrile (organic phase content: 99% acetonitrile, 1% DMSO).
(§9) Two 96-well incubation plates were prepared and named as T60 incubation plate and NCF60 incubation plate.
(§10) 445 μL of microsomal working solution (liver microsomal protein concentration of 0.56 mg/mL) was added to both the T60 incubation plate and the NCF60 incubation plate.
(§11) The two incubation plates were pre-incubated in a 37° C. water bath for approximately 10 minutes.
(§12) After pre-incubation, 5 μL of the test compound or control compound working solution was added to both the T60 incubation plate and the NCF60 incubation plate and mixed well. 50 μL of potassium phosphate buffer per well was added to the NCF60 incubation plate to initiate the reaction. 180 μL of termination solution (acetonitrile solution containing 200 ng/mL tolbutamide and 200 ng/mL labetalol) and 6 μL of NADPH regeneration system working solution were added to a TO termination plate. […]

[2] = In vitro liver microsomal stability test, dog; type: in vitro ADME; conditions: Dog liver microsomes, 1 μM compound, 0.5 mg/mL
Procedure: as §5, §6, §7, §8, §9, §10, §11, §12

[3] = In vitro liver microsomal stability test, rat; type: in vitro ADME; conditions: Rat liver microsomes, 1 μM compound, 0.5 mg/mL
Procedure: as §5, §6, §7, §8, §9, §10, §11, §12

[4] = Pharmacokinetic testing in CD-1 mice; type: in vivo
Procedure: Experimental purpose: To test the pharmacokinetic properties of the compound of the present disclosure in CD-1 mice.
Experimental materials: CD-1 mice (female, 15 to 30 g, 6 to 9 weeks, Beijing Vital River Laboratory Animal Technology Co., Ltd.)
The pharmacokinetic characteristics of the compound in rodents were tested following intravenous injection and oral administration according to a standard protocol. In the experiment, the candidate compound was prepared as a clear solution for single intravenous injection and as a homogeneous suspension for single oral administration in mice. In the case of intravenous injection, the dose was 3 mg/kg, with the vehicle being 5% DMSO/10% Solutol/85% water. In the case of oral administration, the dose was 30 mg/kg, with the vehicle being 0.5% MC (4000 cps)/0.2% Tween-80. Whole blood samples were collected within 24 hours, centrifuged at 3000 g for 15 minutes at 4° C., and the supernatant was separated to obtain plasma samples. 20 times the volume of acetonitrile solution containing internal standard was added to precipitate the protein. The samples were vortexed for 10 minutes and centrifuged at 3220 g for 15 minutes at 4° C. The supernatant was transferred to a 96-well plate and centrifuged at 3220 g for 5 minutes at 4° C. The supernatant was then injected for LC-MS/MS analysis to quantify plasma concentration, and pharmacokinetic parameters were calculated.

[5] = Pharmacokinetic testing in Beagles; type: in vivo
Procedure: Experimental purpose: To test the pharmacokinetic properties of the compound of the present disclosure in Beagles.
Experimental materials: Beagles (male, >6 months old, Beijing Marshall Biotechnology Co., Ltd.)
The pharmacokinetic characteristics of the compound in dogs were tested following intravenous injection and oral administration according to a standard protocol. In the experiment, the test compound was prepared as a clear solution for single intravenous injection and single oral administration in dogs. In the case of intravenous injection, the dose was 2 mg/kg, with the vehicle being 5% DMSO/10% Solutol/85% water. In the case of oral administration, the dose was 10 mg/kg, with the vehicle being 5% DMSO/10% Solutol/85% water. Whole blood samples were collected within 48 hours, centrifuged at 3000 g for 15 minutes at 4° C., and the supernatant was separated to obtain plasma samples. 20 times the volume of acetonitrile solution containing internal standard was added to precipitate the protein. The samples were vortexed for 10 minutes and centrifuged at 3220 g for 15 minutes at 4° C. The supernatant was transferred to a 96-well plate and centrifuged at 3220 g for 5 minutes at 4° C. The supernatant was then injected for LC-MS/MS analysis to quantify plasma concentration, and pharmacokinetic parameters were calculated.

[6] = tested on: human large cell lung cancer LU99 subcutaneous xenograft tumor; assay: In vivo efficacy test, LU99 subcutaneous xenograft tumor model; design: species or system BALB/c nude mice; conditions: for TGI: based on tumor volume on day 29
Procedure: To evaluate the tumor inhibitory effect of the compounds of the present disclosure on a human large cell lung cancer LU99 subcutaneous xenograft tumor model.
Female BALB/c nude mice were subcutaneously inoculated with the human large cell lung cancer LU99 cell line. After inoculation, the mice were randomly divided into groups based on body weight and tumor volume, with six animals per group, and were administered as described below.
Group 1 (vehicle group): When the tumor volume reached 207±9 mm^3 after inoculation, the mice were administered daily by gavage with the vehicle (5% DMSO/10% Solutol/85% double-distilled water) at a dose of 0.1 mL/10 g.
Group 2 (treatment group): When the tumor volume reached 207±10 mm^3 after inoculation, the mice were administered daily by gavage with the test compound (compound dissolved in 5% DMSO/10% Solutol/85% double-distilled water) at a dose of 12.5 mg/kg.
Group 3 (treatment group): When the tumor volume reached 207±10 mm^3 after inoculation, the mice were administered daily by gavage with the test compound (compound dissolved in 5% DMSO/10% Solutol/85% double-distilled water) at a dose of 25 mg/kg.
Group 4 (treatment group): When the tumor volume reached 207±14 mm^3 after inoculation, the mice were administered daily by gavage with the test compound (compound dissolved in 5% DMSO/10% Solutol/85% double-distilled water) at a dose of 50 mg/kg.
After the experimental grouping, the mice were weighed twice weekly, and the tumor diameters were measured using a vernier caliper. The tumor volume was calculated, and then the tumor growth inhibition (TGI) was calculated. On day 29 after experimental administration, the mice were euthanized and sampled. The calculation formulas are as follows:
Tumor volume=0.5×Length×Width^2
TGI (%)=[1−(Ti−T0)/(Ci−C0)]×100%, where Ti is the average tumor volume of a given administration group on a given day, T0 is the average tumor volume of the administration group at the start of administration, Ci is the average tumor volume of the control group on a given day (the same day as Ti), and C0 is the average tumor volume of the control group at the start of administration.

Cn1ncc(-c2ccc3c(=O)[nH]nc(CN)c3c2)c1-c1c(F)c(Cl)cc(OC2(C)CC2)c1C#N (single isomer, unassigned) [Compound 1A]
IC50 (HCT116 MTAP KO cells): 8 nM
IC50 (HCT116 WT cells): > 10000 nM

Cn1ncc(-c2ccc3c(=O)[nH]nc(CN)c3c2)c1-c1c(F)c(Cl)cc(OC2(C)CC2)c1C#N (single isomer, unassigned) [Compound 3A]
IC50 (HCT116 MTAP KO cells): 7.43 nM
IC50 (HCT116 WT cells): 4700 nM

[2H]C([2H])([2H])n1ncc(-c2ccc3c(=O)[nH]nc(CN)c3c2)c1-c1c(F)c(Cl)cc(OC2(C)CC2)c1C#N [Compound 3A]
Liver microsomal stability CLint [1]: 20.4 mL/min/kg
Liver microsomal stability CLint [2]: 47.7 mL/min/kg
Liver microsomal stability CLint [3]: 53.6 mL/min/kg
Clearance Cl ([4]; intravenous injection 3 mg/kg): 30.0 mL/min/kg
Half-life T1/2 ([4]; intravenous injection 3 mg/kg): 1.29 h
Bioavailability F ([4]; oral 30 mg/kg): 46.8%
Concentration integral AUC0-last ([4]; oral 30 mg/kg): 16.059 µM·h
Clearance ([5]; intravenous injection 2 mg/kg): 4.29 mL/min/kg
Half-life T1/2 ([5]; intravenous injection 2 mg/kg): 5.90 h
Bioavailability F ([5]; oral 10 mg/kg): 113%
Plasma concentration integral AUC0-last ([5]; oral 10 mg/kg): 91.502 µM·h
Tumor volume ([6]; 12.5 mg/kg daily by gavage, Day 0): 207 mm^3
Tumor volume ([6]; 12.5 mg/kg daily by gavage, Day 4): 253 mm^3
Tumor volume ([6]; 12.5 mg/kg daily by gavage, Day 8): 297 mm^3
Tumor volume ([6]; 12.5 mg/kg daily by gavage, Day 11): 331 mm^3
Tumor volume ([6]; 12.5 mg/kg daily by gavage, Day 15): 382 mm^3
Tumor volume ([6]; 12.5 mg/kg daily by gavage, Day 18): 440 mm^3
Tumor volume ([6]; 12.5 mg/kg daily by gavage, Day 22): 494 mm^3
Tumor volume ([6]; 12.5 mg/kg daily by gavage, Day 25): 565 mm^3
Tumor volume ([6]; 12.5 mg/kg daily by gavage, Day 29): 755 mm^3
TGI ([6]; 12.5 mg/kg daily by gavage): 66%
Tumor volume ([6]; 25 mg/kg daily by gavage, Day 0): 207 mm^3
Tumor volume ([6]; 25 mg/kg daily by gavage, Day 4): 254 mm^3
Tumor volume ([6]; 25 mg/kg daily by gavage, Day 8): 247 mm^3
Tumor volume ([6]; 25 mg/kg daily by gavage, Day 11): 240 mm^3
Tumor volume ([6]; 25 mg/kg daily by gavage, Day 15): 238 mm^3
Tumor volume ([6]; 25 mg/kg daily by gavage, Day 18): 248 mm^3
Tumor volume ([6]; 25 mg/kg daily by gavage, Day 22): 282 mm^3
Tumor volume ([6]; 25 mg/kg daily by gavage, Day 25): 363 mm^3
Tumor volume ([6]; 25 mg/kg daily by gavage, Day 29): 491 mm^3
TGI ([6]; 25 mg/kg daily by gavage): 83%
Tumor volume ([6]; 50 mg/kg daily by gavage, Day 0): 207 mm^3
Tumor volume ([6]; 50 mg/kg daily by gavage, Day 4): 239 mm^3
Tumor volume ([6]; 50 mg/kg daily by gavage, Day 8): 238 mm^3
Tumor volume ([6]; 50 mg/kg daily by gavage, Day 11): 209 mm^3
Tumor volume ([6]; 50 mg/kg daily by gavage, Day 15): 206 mm^3
Tumor volume ([6]; 50 mg/kg daily by gavage, Day 18): 193 mm^3
Tumor volume ([6]; 50 mg/kg daily by gavage, Day 22): 226 mm^3
Tumor volume ([6]; 50 mg/kg daily by gavage, Day 25): 273 mm^3
Tumor volume ([6]; 50 mg/kg daily by gavage, Day 29): 412 mm^3
TGI ([6]; 50 mg/kg daily by gavage): 87%
